From patent US6783973B1, “Mammalian catecholamine receptor genes and uses” (Oregon Health & Science University, priority 2000, dated 2004)

Tests used:
[1] = system: HEK 293 cells transfected with pcDNA3.1 without catecholamine receptor sequences; experiment: MAP kinase pathway stimulation, Elk-gal/luciferase reporter assay in control HEK 293 cells transfected with pcDNA3.1; details: control HEK 293 cells with empty vector pcDNA3.1; compared with cells incubated in the absence of the ligand
[2] = system: human catecholamine receptor; experiment: MAP kinase pathway stimulation, Elk-gal/luciferase reporter assay in HEK 293 cells transfected with H2-3pcDNA3.1; details: HEK 293 cells expressing FLAG/D2-tagged human catecholamine receptor; compared with cells incubated in the absence of the ligand

Compound	fold stimulation of luciferase (MAP kinase activation), pcDNA3.1 [1] [fold]	fold stimulation of luciferase (MAP kinase activation), H2-3 pcDNA3.1 [2] [fold]
NCCc1c[nH]c2ccc(O)cc12 [Serotonin]	1	1.22
NC1CCc2cc(O)c(O)cc2C1 (centres unmarked) [ADTN67]	0.78	1.93
NC[C@H](O)c1ccc(O)c(O)c1 [Norepinephrine]	1.3	1.69
C=CCN1CCc2c(cc(O)c(O)c2Cl)C(c2ccccc2)C1 (centres unmarked) [SKF82958]	0.79	2.52
